Some test systems named below: M14; A498; COLO 205; LOX IMVI; OVCAR-4; HT-29; KM12; U-251; SK-MEL-5; SF-539; NCI-H460; Malme-3M; A549; HL-60; ACHN; SR.
What all share (experiment): inhibition of tumour cell growth, NCI panel, 48 h

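Tested at 5 concentrations; 48 h exposure; 96-well plates; endpoints linearly interpolated, else capped at highest concentration. The concentration for 50% growth inhibition is given as GI50.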 The source made the active and inactive calls. Rule as the data show it: active = GI50 up to about 1.1 µM and inactive = higher.

For the molecule `C/C(=N\NC(=S)N1CCC(C2CCN(C(=S)N/N=C(\C)c3ccccn3)CC2)CC1)c1ccccn1`, the GI50 with M14 is > 100 µM (inactive); in the assay with A498 it was > 100 µM (inactive); with COLO 205, > 100 µM (inactive); with LOX IMVI, 68.9 µM (inactive); in the assay with OVCAR-4, > 100 µM (inactive); in the assay with HT-29, > 100 µM (inactive). Besides, the GI50 was > 100 µM (inactive) in the assay on KM12; 34.1 µM (inactive) in the assay on U-251; 62.4 µM (inactive) with SK-MEL-5; 51.3 µM (inactive) with SF-539; > 100 µM (inactive) with NCI-H460; > 100 µM (inactive) with Malme-3M. Further, the GI50 in the assay on A549 is 55 µM (inactive); with HL-60 it was > 100 µM (inactive); in the assay with ACHN it was 53.7 µM (inactive).
`Cc1ccc(/C=C/C(=O)C(C)C)cc1`: the GI50 in the assay with M14 was 58.7 µM (inactive); with A498, > 100 µM (inactive); in the assay with SR, 31.8 µM (inactive); with COLO 205 it was > 100 µM (inactive); with OVCAR-4, > 100 µM (inactive); in the assay with HT-29, 37.3 µM (inactive). Moreover, the GI50 in the assay on KM12 was 48.8 µM (inactive); in the assay with U-251, 24.5 µM (inactive); in the assay on SK-MEL-5, 50.9 µM (inactive); with NCI-H460, 44.7 µM (inactive); with A549, > 100 µM (inactive); in the assay with ACHN, 83.8 µM (inactive).
As to `CCOC(=O)c1cc(C(=O)O)c(=O)n2c1[nH]c1ccccc12`, the GI50 in the assay with M14, with A498, in the assay with COLO 205, with OVCAR-4, in the assay with HT-29 and with KM12 was > 100 µM (inactive) throughout. The GI50 was 83.4 µM (inactive) in the assay with U-251; 60.8 µM (inactive) with SK-MEL-5; 36.4 µM (inactive) with SF-539; 89.9 µM (inactive) with NCI-H460; > 100 µM (inactive) in the assay on Malme-3M; 60.8 µM (inactive) in the assay with A549. The GI50 in the assay with HL-60 and in the assay with ACHN was > 100 µM (inactive) each time.
Turning to `Cn1c(=O)c(C(c2ccccc2)c2c(O)c3ccccc3n(C)c2=O)c(O)c2ccccc21`, the GI50 in the assay on M14 was > 100 µM (inactive); with SR, 45.5 µM (inactive); in the assay on COLO 205 it was > 100 µM (inactive); with LOX IMVI, > 100 µM (inactive); with OVCAR-4, 53.6 µM (inactive); with HT-29 it was > 100 µM (inactive). In addition, the GI50 in the assay on KM12, in the assay with U-251, in the assay with SK-MEL-5, with SF-539, in the assay with NCI-H460 and in the assay on Malme-3M was > 100 µM (inactive) throughout. For the same molecule, the values for the GI50 in the assay with A549, in the assay with HL-60 and with ACHN were > 100 µM (inactive), 32.4 µM (inactive) and > 100 µM (inactive), respectively.
`CN(C)c1ncnc2c1Cc1ccccc1C(=O)N2C`: the GI50 in the assay with M14, in the assay on SR, in the assay with COLO 205, with LOX IMVI, in the assay on OVCAR-4 and in the assay with HT-29 was > 100 µM (inactive) throughout. For the same molecule, the GI50 in the assay on KM12, in the assay with U-251, in the assay with SK-MEL-5, in the assay on SF-539, in the assay on NCI-H460 and with Malme-3M was > 100 µM (inactive) each time. For the same molecule, the GI50 in the assay with A549, with HL-60 and in the assay on ACHN was > 100 µM (inactive) throughout.
For `NC(=O)NCc1c(C(N)=O)ncn1Cc1ccccc1`, the GI50 in the assay on M14, in the assay with A498, with COLO 205, in the assay on LOX IMVI, in the assay on OVCAR-4 and in the assay on HT-29 was > 100 µM (inactive) each time. In addition, the GI50 in the assay on U-251, in the assay on SK-MEL-5, in the assay on SF-539, in the assay with NCI-H460, in the assay on A549 and with HL-60 was > 100 µM (inactive) in each case. Besides, in the assay with ACHN, the GI50 is > 100 µM (inactive).
As to `COC(=O)C1=C(C)N(NC(=O)c2ccccc2)C(C)(O)C12CCOC2=O` (configuration not stated), the GI50 in the assay on M14, in the assay with A498, in the assay on COLO 205, with LOX IMVI, in the assay with OVCAR-4 and in the assay with HT-29 was > 100 µM (inactive) each time. For the same molecule, the GI50 with KM12 was > 100 µM (inactive); in the assay with U-251 it was > 100 µM (inactive); in the assay on SF-539 it was > 100 µM (inactive); in the assay with NCI-H460, > 100 µM (inactive); in the assay with Malme-3M, 0.0475 µM (active); in the assay with A549, > 100 µM (inactive). Besides, the GI50 with HL-60 and with ACHN was > 100 µM (inactive) each time.
Consider `S=C1NCCN1`, for which the GI50 in the assay with M14, with SR, with COLO 205, with LOX IMVI, in the assay with OVCAR-4 and in the assay on HT-29 was > 100 µM (inactive) in each case. In addition, the GI50 with KM12, in the assay with U-251, with SK-MEL-5, with SF-539, with Malme-3M and in the assay on A549 was > 100 µM (inactive) in each case. Further, the GI50 in the assay on HL-60 and in the assay with ACHN was > 100 µM (inactive) in each case.
Regarding `CC1(S)CC2C(CC1Sc1ccccc1)C2(C)C` (configuration not stated), the GI50 with M14, with COLO 205, in the assay with OVCAR-4, in the assay on HT-29, in the assay with KM12 and with U-251 was > 100 µM (inactive) in each case. Moreover, the GI50 with SK-MEL-5 was 8.67 µM (inactive); in the assay on SF-539, > 100 µM (inactive); with NCI-H460, > 100 µM (inactive); in the assay on Malme-3M it was > 100 µM (inactive); in the assay with A549, > 100 µM (inactive); with HL-60, > 100 µM (inactive). Further, the GI50 in the assay on ACHN was > 100 µM (inactive).
As for `CCOC(=O)Cc1c(Cc2[nH]c(C(=O)OCc3ccccc3)c(CC(=O)OCC)c2CC(=O)OCC)[nH]c(C(=O)OCc2ccccc2)c1CC(=O)OCC`, the GI50 in the assay on M14, with A498, in the assay on SR, in the assay on COLO 205, in the assay on HT-29 and with U-251 was > 100 µM (inactive) throughout. Moreover, the GI50 with SK-MEL-5, with SF-539, in the assay with Malme-3M, in the assay on A549, in the assay with HL-60 and with ACHN was > 100 µM (inactive) in each case.
